Measured values taken from patent US20250032557A1, “Novel Strain Having Antagonism Against Proteus Mirabilis and Excellent Effect on Neurodegenerative Disease, and use Thereof” (METACEN THERAPEUTICS CO., LTD, priority 2021, published 2025).

Assay: Protective ability against MPP^+ induced apoptosis of neurons (WST-1 cell viability)
Format: cell-based
Conditions: human, MPP^+ 1 mM alone, read-out: Cell viability % compared to control
Experimental: The following experiment was performed to evaluate the protective ability against apoptosis of neurons caused by MPP^+, a Parkinson's disease-inducing toxicity, in differentiated SH-Sy5y cells (brain neurons) for the Weissella cibaria strains shown in Table 2 above.
Thereafter, the existing medium was removed and replaced with 0.5% fetal bovine serum DMEM medium to which a sample was added at various concentrations. After 4 hours, the cells were treated with MPP^+ neurotoxicity at a concentration of 1 mM and cultured for an additional 44 hours. Thereafter, the medium was treated with the WST-1 solution and cultured for 2 hours to induce a reduction reaction, and then the absorbance was measured at 450 nm using an ELISA microplate reader.

For `C[n+]1ccc(-c2ccccc2)cc1` [MPP^+, 1-methyl-4-phenylpyridinium iodide], which viability at 44 h, 1 mM is on record?
The viability at 44 h, 1 mM was 53%.
